Data on 2 molecules can be found in patent US20110287982A1, “CELL CULTURE DEVICE” (priority 2008, published 2011).

The assay concerns cardiac tissue generated from cardiomyocytes derived from human ESCs. The experiment in a line: Electrophysiological recordings of cardiac tissue (CardioSpot) on porous multi-electrode arrays. The assay is classed as cell-based. The note with it: for repolarising potential (delay measured from the first signal): 30 nM E4031, control 140 ms. The method, then:
Beating aggregates are maintained at room temperature in cryo-vials full of culture medium (Human cardiovascular progenitor cells develop from a KDR+embryonic-stem-cell-derived population. Yang L, et al., (2008). […] Culture Medium-StemPro 34 and 10 ng/mL VEGF CardioSpot made using primary or stem cell derived cardiomyocytes are placed onto the porous MEAs. Electrophysiological recordings were performed either through the supporting membrane or from under the membrane in order to get a direct contact of the tissues with recording electrodes. Control recording were performed using the culture medium as well a the solution used for reference molecules ([…], and lidocaine) Pharmacological experiments were carried out using reference compounds to characterise and validate the cardiac tissue generated from cardiomyocytes derived from human ESCs and engineered using the method of invention.

For `Cc1cccc(CCN2CCC(C(=O)c3ccc(NS(C)(=O)=O)cc3)CC2)n1` [E4031], the “repolarising potential (delay measured from the first signal)” value is, setting by setting: (after 5 min) 155 ms; (after 15 min) 173 ms.
Take `CCN(CC)CC(=O)Nc1c(C)cccc1C` [lidocaine]: the “decrease of the amplitude of the electrophysiological signals” value (30 uM lidocaine, after 6 minutes) is 50%. Further, the “amplitude of the first signal (predominantly dependent of sodium channel opening)” value (lidocaine, within few minutes) was “dramatic decrease”.
